Usually inhibition stands for the relative decrease from the control value, in per cent. For orientation: IC50 means the concentration at which inhibition is half-maximal.

Among the data in patent publication US6680335B2, “Methods of modulating protein tyrosine kinase function with substituted indolinone compounds” (Sugen, Inc., priority 1998, dated 2004) are inhibition and IC50 values, retold here.

Assay [1] has as its target T1, src protein kinase (Gallus gallus, UniProt P00523).
T1 construct: made in house; host or cells: Schizosaccharomyces pombe strain SP200, pRSP expression plasmids
In words: Assay measuring SRC protein kinase activity (phosphorylation of a biotinylated peptide). The following applies: src from transformed yeast lysate, 5 μM ATP; for inhibition at 100 µM: compound at 100 μM; for IC50: cells without %. The assay is classed as biochemical. On the procedure: This assay is used to determine src protein kinase activity measuring phosphorylation of a biotinylated peptide as the readout.
a. Yeast transformed with src.
b. Cell lysates: Yeast cells expressing src are pelleted, washed once with water, re-pelleted and stored at −80° C. until use.
c. N-terminus biotinylated […] is prepared by standard procedures well known to those skilled in the art.
h. […] S. Pombe strain SP200 (h-s leul.32 ura4 ade21O) was grown as described and transformations were pRSP expression plasmids were done by the lithium acetate method (Superti-Furga, supra). Cells were grown in the presence of 1 μM thiamine to repress expression from the nmtl promoter or in the absence of thiamine to induce expression.
a. Preparation of src coated ELISA plate.
1. Coat ELISA plate with 0.5 μg/well anti-src mab in 100 μL of pH 9.6 sodium carbonate buffer at 4° C. overnight.
2. Wash wells once with PBS.
3. Block plate with 0.15 mL 5% milk in PBS for 30 min. at room temperature.
4. Wash plate 5× with PBS.
5. Add 10 μg/well of src transformed yeast lysates diluted in Lysis Buffer (0.1 mL total volume per well). (Amount of lysate may vary between hatches.) Shake plate for 20 minutes at room temperature.
b. Preparation of phosphotyrosine antibody-coated ELISA plate.
1. 4G10 plate: coat 0.5 μg/well 4G10 in 100 μL PBS overnight at 4° C. and block with 150 μL of 5% milk in PBS for 30 minutes at room temperature.
c. Kinase assay procedure.
1. Remove unbound proteins from steps 1-7, above, and wash plates 5× with PBS.
2. Add 0.08 mL Kinase Reaction Mixture per well (containing 10 μL of 10×Kinase Buffer and 10 μM (final concentration) biotin-[…] per well diluted in water.
3. Add 10 μL of compound diluted in water containing 10% DMSO and pre-incubate for 15 minutes at room temperature.
4. Start kinase reaction by adding 10 μL/well of 0.05 mM ATP in water (5 μM ATP final).
5. Shake ELISA plate for 15 min. at room temperature.
6. Stop kinase reaction by adding 10 μL of 0.5 M EDTA per well.
7. Transfer 90 μL supernatant to a blocked 4G10 coated ELISA plate from section B, above.
8. Incubate for 30 min. while shaking at room temperature.
9. Wash plate 5× with TBST.
10. Incubate with Vectastain ELITE ABC reagent (100 μL/well) for 30 min. at room temperature.
11. Wash the wells 5× with TBST.
12. Develop with Turbo TMB.
(§1) The IC50 values were measured for several of the compounds of the invention.

Assay [2] deals with T2, FLK-1 receptor (Mus musculus, UniProt P35918).
T2 construct: expressed in transfected cells; host or cells: NIH3T3 C7#3 cells
In words: ELISA assay measuring the kinase activity of the FLK-1 receptor in cells engineered to express FLK-1. The assay is classed as cell-based. Particulars: FLK-1 expressing NIH3T3 C7#3 cells, VEGF stimulated; for inhibition at 100 µM: compound at 100 μM; for IC50: cells without % or + sign. On the procedure:
An ELISA assay was conducted to measure the kinase activity of the FLK-1 receptor and more specifically, the inhibition or activation of TK activity on the FLK-1 receptor. Specifically, the following assay was conducted to measure kinase activity of the FLK-1 receptor in cells genetically engineered to express FLK-1.
(11) NIH3T3 C7#3 Cells (FLK-1 expressing cells);
The following protocol was used for conducting the assay:
1. Coat Corning 96-well elisa plates with 1.0 μg per well Cappel Anti-rabbit IgG antibody in 0.1 M Na2CO3 pH 9.6. Bring final volume to 150 μL per well. Coat plates overnight at 4° C. Plates can be kept up to two weeks when stored at 4° C.
2. Grow cells in Growth media (DMEM, supplemental with 2.0 mM L-Glutamine, 10% FBS) in suitable culture dishes until confluent at 37° C., 5% CO2.
3. Harvest cells by trypsinization and seed in Corning 25850 polystyrene 96-well roundbottom cell plates, 25.000 cells/well in 200 μL of growth media.
4. Grow cells at least one day at 37° C., 5% CO2.
5. Wash cells with D-PBS 1×.
6. Add 200 μL/well of starvation media (DMEM, 2.0 mM 1-Glutamine, 0.1% FBS). Incubate overnight at 37° C., 5% CO2.
7. Dilute Compounds 1:20 in polypropylene 96 well plates using starvation media. Dilute dimethylsulfoxide 1:20 for use in control wells.
8. Remove starvation media from 96 well cell culture plates and add 162 μL of fresh starvation media to each well.
9. Add 18 μL of 1:20 diluted Compound dilution (from step 7) to each well plus the 1:20 dimethylsulfoxide dilution to the control wells (+/−VEGF), for a final dilution of 1:200 after cell stimulation. Final dimethylsulfoxide is 0.5%. Incubate the plate at 37° C., 5% CO2 for two hours.
10. Remove unbound antibody from ELISA plates by inverting plate to remove liquid. Wash 3 times with TBSW+0.5% ethanolamine, pH 7.0. Pat the plate on a paper towel to remove excess liquid and bubbles.
11. Block plates with TBSW+0.5% Ethanolamine, pH 7.0, 150 μL per well. Incubate plate thirty minutes while shaking on a microliter plate shaker.
12. Wash plate 3 times as described in step 10.
13. […] Bring final volume to 150 μL/well with TBSW+0.5% ethanolamine pH 7.0. Incubate plate for thirty minutes while shaking.
14. Add 180 μL starvation medium to the cells and stimulate cells with 20 μL/well 10.0 mM sodium ortho vanadate and 500 ng/mL VEGF (resulting in a final concentration of 1.0 mM sodium ortho vanadate and 50 ng/mL VEGF per well) for eight minutes at 37° C., 5% CO2. Negative control wells receive only starvation medium.
15. After eight minutes, media should be removed from the cells and washed one time with 200 μL/well PBS.
16. Lyse cells in 150 μL/well HNTG while shaking at room temperature for five minutes. HNTG formulation includes sodium ortho vanadate, sodium pyro phosphate and EDTA.
17. Wash ELISA plate three times as described in step 10.
18. Transfer cell lysates from the cell plate to ELISA plate and incubate while shaking for two hours. To transfer cell lysate pipette up and down while scrapping the wells.
19. Wash plate three times as described in step 10.
20. Incubate ELISA plate with 0.02 μg/well UB40 in TBSW+05% ethanolamine. Bring final volume to 150 μL/well. Incubate while shaking for 30 minutes.
21. Wash plate three times as described in step 10.
22. Incubate ELISA plate with 1:10,000 diluted EIA grade goat anti-mouse IgG conjugated horseradish peroxidase in TBSW+0.5% ethanolamine, pH 7.0. Bring final volume to 150 μL/well. Incubate while shaking for thirty minutes.
23. Wash plate as described in step 10.
24. Add 100 μL of ABTS/H2O2 solution to well. Incubate ten minutes while shaking.
25. Add 100 μL of 0.2 M HCl for 0.1 M HCl final to stop the color development reaction. Shake 1 minute at room temperature. Remove bubbles with slow stream of air and read the ELISA plate in an ELISA plate reader at 410 nm.
as §1
In general terms: ELISA stands for enzyme-linked immunosorbent assay.

T2 sequence (P35918 20-1345): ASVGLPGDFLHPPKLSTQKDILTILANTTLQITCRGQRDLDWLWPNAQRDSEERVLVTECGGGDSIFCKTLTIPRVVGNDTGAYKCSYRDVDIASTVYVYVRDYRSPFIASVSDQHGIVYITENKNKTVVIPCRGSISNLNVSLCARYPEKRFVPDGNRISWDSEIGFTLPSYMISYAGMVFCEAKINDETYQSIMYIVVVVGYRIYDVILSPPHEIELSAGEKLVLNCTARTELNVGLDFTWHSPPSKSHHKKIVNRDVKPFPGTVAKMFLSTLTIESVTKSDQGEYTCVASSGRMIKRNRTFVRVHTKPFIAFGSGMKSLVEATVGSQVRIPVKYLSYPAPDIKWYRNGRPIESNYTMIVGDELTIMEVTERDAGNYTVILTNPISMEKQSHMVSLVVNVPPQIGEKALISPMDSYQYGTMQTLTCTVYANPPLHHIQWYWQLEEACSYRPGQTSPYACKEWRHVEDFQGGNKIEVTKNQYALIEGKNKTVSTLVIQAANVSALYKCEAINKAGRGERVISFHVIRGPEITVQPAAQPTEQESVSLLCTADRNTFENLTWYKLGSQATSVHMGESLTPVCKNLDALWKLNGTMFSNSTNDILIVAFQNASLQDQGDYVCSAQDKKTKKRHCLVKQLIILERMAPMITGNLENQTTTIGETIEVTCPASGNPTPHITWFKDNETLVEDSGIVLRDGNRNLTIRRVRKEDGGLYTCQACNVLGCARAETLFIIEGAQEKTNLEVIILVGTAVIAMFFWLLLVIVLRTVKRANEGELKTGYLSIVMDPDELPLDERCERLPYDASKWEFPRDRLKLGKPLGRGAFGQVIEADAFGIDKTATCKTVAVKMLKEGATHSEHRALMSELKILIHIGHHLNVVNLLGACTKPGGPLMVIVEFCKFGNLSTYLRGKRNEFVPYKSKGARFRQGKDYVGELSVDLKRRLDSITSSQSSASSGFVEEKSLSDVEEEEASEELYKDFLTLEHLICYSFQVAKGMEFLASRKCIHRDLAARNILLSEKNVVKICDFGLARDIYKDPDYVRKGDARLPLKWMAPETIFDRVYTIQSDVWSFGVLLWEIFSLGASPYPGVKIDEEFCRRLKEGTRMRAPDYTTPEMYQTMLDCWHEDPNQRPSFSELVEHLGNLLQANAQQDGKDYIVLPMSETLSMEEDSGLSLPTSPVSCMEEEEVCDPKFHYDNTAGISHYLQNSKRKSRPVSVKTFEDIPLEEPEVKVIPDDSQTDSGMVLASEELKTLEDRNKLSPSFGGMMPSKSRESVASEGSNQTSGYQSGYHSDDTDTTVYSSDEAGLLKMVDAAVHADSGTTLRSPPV

Consider `Cc1c(/C=C2\C(=O)Nc3ccc(S(N)(=O)=O)cc32)[nH]c2ccccc12` [IN-002, 3-(3-Methyl-1H-indol-2-ylmethylene)-2-oxo-2,3-dihydro-1H-indole-5-sulfonic acid amide], for which the inhibition at 100 µM in assay [1] was -3.5%; in assay [2], 8.7%.
For `Cc1c(/C=C2\C(=O)Nc3ccccc32)[nH]c2ccccc12` [IN-016, 3-(3-Methyl-1H-indol-2-ylmethylene)-1,3-dihydro-indol-2-one] the same measures were 20.2% and 26%.
For `CC(=O)c1ccc2c(c1)C(=Cc1cc3ccccc3[nH]1)C(=O)N2` [IN-007, 5-Acetyl-3-(1H-indol-2-ylmethylene)-1,3-dihydro-indol-2-one] the same measures were 12.4% and 30%.
For `O=C1Nc2cc(Cl)ccc2/C1=C/c1cc2ccccc2[nH]1` [IN-011, 6-Chloro-3-(1H-indol-2-ylmethylene)-1,3-dihydro-indol-2-one], in that order: -38.5% and 6.1%.
Consider `O=C1Nc2ccc(Cl)cc2/C1=C/c1cc2ccccc2[nH]1` [IN-013, 5-chloro-3-(1H-indol-2-ylmethylene)-1,3-dihydro-indol-2-one], for which the inhibition at 100 µM in assay [1] is -0.6%; in assay [2], 17%.
For `NS(=O)(=O)c1ccc2c(c1)/C(=C/c1cc3ccccc3[nH]1)C(=O)N2` [IN-008, 3-(1H-Indol-2-ylmethylene)-2-oxo-2,3-dihydro-1H-indole-5-sulfonic acid amide], in that order: -11% and 23%.
In the case of `CC(=O)c1ccc2c(c1)C(=Cc1[nH]c3ccccc3c1C)C(=O)N2` [IN-006, 5-Acetyl-3-(3-methyl-1H-indol-2-ylmethylene)-1,3-dihydro-indol-2-one], the IC50 in assay [1] was over 100 µM. Also, the inhibition at 100 µM in assay [2] turned out to be 10.4%.
Regarding `O=C1Nc2ccc(C(=O)O)cc2/C1=C/c1cc2ccccc2[nH]1` [IN-010, 3-(1H-Indol-2-ylmethylene)-2-oxo-2,3-dihydro-1H-indole-5-carboxylic acid], the inhibition at 100 µM in assay [1] stood at 36.4%. For the same compound, the IC50 in assay [2] was 2.1 µM.
Regarding `O=C1Nc2ccccc2/C1=C/c1cc2ccccc2[nH]1` [IN-012, 3-(1H-Indol-2-ylmethylene)-1,3-dihydro-indol-2-one], the inhibition at 100 µM in assay [1] was -12%; in assay [2], 17.6%.
Regarding `Cc1c(/C=C2\C(=O)Nc3ccc(Br)cc32)[nH]c2ccccc12` [IN-018, 5-Bromo-3-(3-methyl-1H-indol-2-ylmethylene)-1,3-dihydro-indol-2-one], the inhibition at 100 µM in assay [1] came out at 19.5%; in assay [2] it was 15.8%.
`Cc1c(/C=C2\C(=O)Nc3ccc(C(=O)O)cc32)[nH]c2ccccc12` [IN-005, 3-(3-Methyl-1H-indol-2-ylmethylene)-2-oxo-2,3-dihydro-1H-indole-5-carboxylic acid]: the IC50 in assay [2] came to 4.2 µM.
Turning to `Cc1c(/C=C2\C(=O)Nc3ccc(Cl)cc32)[nH]c2ccccc12` [IN-017, 5-Chloro-3-(3-methyl-1H-indol-2-ylmethylene)-1,3-dihydro-indol-2-one], the figures for the inhibition at 100 µM in assay [1] and in assay [2] were 21.4% and 20.4%, respectively.
On to `Nc1ccc2c(c1)/C(=C/c1cc3ccccc3[nH]1)C(=O)N2` [IN-009, 5-Amino-3-(1H-indol-2-ylmethylene)-1,3-dihydro-indol-2-one], for which the results for the IC50 in assay [1] and in assay [2] were 9 µM and 1.53 µM, respectively.
As for `Cc1cccc2c1/C(=C/c1[nH]c3ccccc3c1C)C(=O)N2` [IN-019, 4-Methyl-3-(3-methyl-1H-indol-2-ylmethylene)-1,3-dihydro-indol-2-one], the figures for the inhibition at 100 µM in assay [1] and in assay [2] were -6.5% and 10.7%, respectively.
For `Cc1ccc2c(c1)/C(=C/c1[nH]c3ccccc3c1C)C(=O)N2` [IN-001, 5-Methyl-3-(3-methyl-1H-indol-2-ylmethylene)-1,3-dihydro-indol-2-one], in that order: -62% and 10.7%.
